Legend:
Assay type in all cases: in vivo
[1] = system: Leptinotarsa decemlineata-Colorado Potatoe Beetles; test: Choice feeding assay on potato leaf disks; conditions: 3% compound, larvae, 24 h
Protocol: For choice feeding assays, 3% alcohol solutions of the tested compounds are prepared. Disks (4.0 cm in diameter) are cut from potato leaves and are dipped in the test solutions or alcohol alone as a control. After the complete evaporation of the solvent, the disks are offered to 10 larvae. Control and treated disks are placed at alternate corners in Petri dishes (150 by 20 mm) lined with moistened filter paper (choice test). All dishes are placed in an incubator. Four replicates and 40 larva are used for each chemical. In each replicate, the insects are allowed to feed ad libitum for 24 h at 24 C under a 16:8 (L:D) photoperiod. After 24 h, the remaining uneaten area of each potato leaf disk is measured using a scanner and software. The selective antifeeding rate (%) formula is [(C−T)/(C+T)]×100, and the non-selective antifeeding rate (%) formula is [(C−T)/C)]×100, where C and T are the areas consumed by the control and treated leaf disks, respectively.

[2] = system: Aphis gossypii; test: Melon aphid repellency on leaf choice assays; conditions: 3% compound in a Triton X:Water solution; n=100; control 50/50
From the text: Melon Aphid Repellency on Leaf Choice Assays Aphis gossypii are maintained on squash plants. Individual aphids (n=100) are given the choice between leaves with and without repellent treatments. A separate group of aphids are given a choice between untreated vs. untreated leaves as a control. The number of aphids choosing each leaf is counted both choice tests. The number of aphids choosing each treatment is compared to the control to determine the repellent effect.

[3] = system: Dermestid spp.; test: Dermestid beetle feeding damage on silk fabric; conditions: 3% compound; undyed silk disks; late instar larvae; 1 week
Protocol: Dermestid Beetle Feeding Damage on Silk Fabric
For feeding assays, 3% alcohol solutions of the tested compounds are prepared. Disks (4.0 cm in diameter) of undyed silk fabric are dipped in the test solutions or alcohol alone as a control. After the complete evaporation of the solvent, the disks are offered to 10 late instar larvae. All dishes are placed in an incubator. Four replicates are used for each chemical. After 1 week, the remaining uneaten area of each silk disk is measured using a scanner and software. The selective antifeeding rate (%) formula is [(C−T)/(C+T)]×100, and the non-selective antifeeding rate (%) formula is [(C−T)/C)]×100, where C and T are the areas consumed by the control and treated silk disks, respectively.

[4] = system: Plodia interpunctella; test: Feeding repellent assay for Indian meal moth larva on treated rice; conditions: 10% compound in a 5% Ethanol:95% water solution, third instar larvae, 1 week
Protocol: (§1) Feeding Repellent Assay for Indian Meal Moth Larva One gram of rice is weighed and treated with 2% by weight of each test chemical or ethanol as a control for each treatment and replicate. The grains are allowed to dry and then weighed again. Treated or control rice grains are placed in a petri dish. Third instar larvae are starved for 8 h and gently introduced into the center of each compartment. 20 larva are screened per treatment, and each experiment is repeated three times. The weight of rice grains is measured again after 1 week. The selective antifeeding rate (%) formula is [(C−T)/(C+T)]×100, and the non-selective antifeeding rate (%) formula is [(C−T)/C)]×100, where C and T are the areas consumed by the control and treated leaf disks, respectively.

[5] = system: Sitostroga cerealella; test: Feeding repellent assay for Angoumois larva on treated rice; conditions: 10% compound in a 5% Ethanol:95% water solution, third instar larvae, 1 week
Protocol: Feeding Repellent Assay for Angoumois Larva
as §1, with “One” for “Feeding Repellent Assay for Indian Meal Moth Larva One”

[6] = system: Tineola spp.; test: Clothes moth feeding damage on silk fabric, choice test; conditions: 3% compound; silk disks; late instar larvae; 24 hours; control 50/50
Protocol: For feeding assays, 3% alcohol solutions of the tested compounds are prepared. Disks (2.0 cm in diameter) of undyed silk fabric are dipped in the test solutions or alcohol alone as a control. After the complete evaporation of the solvent, the disks are presented in a choice test to 10 late instar Tineola spp. larvae. All dishes are placed in an incubator in the dark. Four replicates are used for each chemical. After 24 hours, the number of individuals choosing to feed on each disk are counted.

[7] = system: sharpshooters; test: Leafhopper repellency on citrus choice assays; conditions: 3% compound; citrus seedlings; 100 sharpshooters per cage; control 50/50
From the text: Leafhopper Repellency on Citrus Choice Assays Citrus seedlings are sprayed with either a 3% solution of repellent chemical in a 5%:95% ETOH:Water or only 5%:95% ETOH:Water as a control. Two seedlings are placed in a screen cage, either a treatment vs control tree or a control vs control tree. 100 sharpshooters are released into each cage. The number of sharpshooters choosing each leaf is counted for both choice tests. The number of sharpshooters choosing each treatment is compared to the control to determine if there is a repellent effect.

[8] = system: Euschistus heros-Neotropical Brown Stink Bugs; test: Stink bug feeding damage on soybean pods; conditions: 3% compound, soybean plants at R6 stage, 48 hours
Protocol: To compare the feeding/resting preference of stink bug adults for different plant parts, 10 pots with soybean plants at the R6 (pod-filling) stage of development are used. 5 pots of soybeans are sprayed with 3% of treatment in a 2% Triton X:water solution and 5 pots of soybean are treated with 2% Triton X:water solution as controls. Thirty stink bugs are placed individually in each cage and allowed to feed for 48 hours. Insects are removed and plant parts are collected for visual analysis of damage. Feeding damage on the pods is counted for both treatments. The selective antifeeding rate (%) formula is [(C−T)/(C+T)]×100, and the non-selective antifeeding rate (%) formula is [(C−T)/C)]×100, where C and T are the numbers of feeding damages on the control and treated plant pods, respectively.

[9] = system: psyllids; test: Psyllid repellency on potato choice assays; conditions: 3% compound; potato plants; 100 psyllids per cage; control 50/50
From the text: Psyllid Repellency on Potato Choice Assays
Potato plants are sprayed with either a 3% solution of repellent chemical in a 5%:95% ETOH:Water or only 5%:95% ETOH:Water as a control. Two plants are placed in a screen cage, either a treatment vs control tree or a control vs control tree, 100 psyllids are released into each cage. The number of psyllids choosing each leaf is counted for both choice tests. The number of psyllids choosing each treatment is compared to the control to determine if there is a repellent effect.

[10] = system: Popillia japonica; test: Japanese beetle feeding damage on basil; conditions: 3% compound; basil leaf disks; adult beetle; 24 h
Protocol: Japanese Beetle Feeding Damage on Basil For choice feeding assays, 3% alcohol solutions of the tested compounds are prepared. Disks (4.0 cm in diameter) are cut from basil leaves and are dipped in the test solutions or alcohol alone as a control. After the complete evaporation of the solvent, the disks are offered to 1 adult beetle. All dishes are placed in an incubator. Four replicates are used for each chemical. After 24 h, the remaining uneaten area of each basil leaf disk is measured using a scanner and software. The selective antifeeding rate (%) formula is [(C−T)/(C+T)]×100, and the non-selective antifeeding rate (%) formula is [(C−T)/C)]×100, where C and T are the areas consumed by the control and treated leaf disks, respectively.

[11] = system: brown marmorated stink bugs (BMSB); test: Repellency as feeding deterrence in brown marmorated stink bugs, treated filter paper with green bean; conditions: compound at 3.5% in a 57% Ethanol:43% water solution; control 38%
Protocol: A test was designed to measure the repellency as feeding deterrence in brown marmorated stink bugs (BMSB). Five replicates of 5 BMSBs were introduced into test arenas, containing one 60 mm×15 mm Petri dish with treated filter papers in which a food source (green bean) was attached, at the start of the test. The small Petri dishes containing the treated filter paper and food source were covered with a fitted Petri dish lid in between observation times, and were removed 5 minutes before each observation time to prevent stink bugs from feeding until sated. The distribution of the BMSBs was observed and documented hourly for 5 hours.

CCCCCC1C(O)CCC1CC(=O)OC (centres unmarked) [Methyl dihydrojasmolate]
% Repellency [1]: 15% | Number of Aphids Choosing each Treatment: Treated [2]: 30 | Number of Aphids Choosing each Treatment: Untreated [2]: 70 | % Repellency [3]: 15% | % Antifeedent Activity [4]: 60% | % Antifeedent Activity [5]: 60% | Individuals choosing to feed on each disk: Treated [6]: 20 | Individuals choosing to feed on each disk: Untreated [6]: 80 | Number of Psyllids Choosing each Treatment: Treated [7]: 30 | Number of Psyllids Choosing each Treatment: Untreated [7]: 70 | % Antifeedent Activity [8]: 90% | Number of Psyllids Choosing each Treatment: Treated [9]: 30 | Number of Psyllids Choosing each Treatment: Untreated [9]: 70 | % Repellency [10]: 15%

CC(C)=CCC/C(C)=C/CC1CCCC1O (centres unmarked) [Apritol]
% Repellency [1]: 15% | Number of Aphids Choosing each Treatment: Treated [2]: 30 | Number of Aphids Choosing each Treatment: Untreated [2]: 70 | % Repellency [3]: 15% | % Antifeedent Activity [4]: 70% | % Antifeedent Activity [5]: 70% | Individuals choosing to feed on each disk: Treated [6]: 20 | Individuals choosing to feed on each disk: Untreated [6]: 80 | Number of Psyllids Choosing each Treatment: Treated [7]: 30 | Number of Psyllids Choosing each Treatment: Untreated [7]: 70 | % Antifeedent Activity [8]: 60% | Number of Psyllids Choosing each Treatment: Treated [9]: 30 | Number of Psyllids Choosing each Treatment: Untreated [9]: 70 | % Repellency [10]: 15%

CC(C)=CCC/C(C)=C/CC1CCCC1=O (centres unmarked) [Apritone, apritone]
% Repellency [1]: 15% | Number of Aphids Choosing each Treatment: Treated [2]: 30 | Number of Aphids Choosing each Treatment: Untreated [2]: 70 | % Repellency [3]: 15% | % Antifeedent Activity [4]: 70% | % Antifeedent Activity [5]: 70% | Individuals choosing to feed on each disk: Treated [6]: 20 | Individuals choosing to feed on each disk: Untreated [6]: 80 | Number of Psyllids Choosing each Treatment: Treated [7]: 30 | Number of Psyllids Choosing each Treatment: Untreated [7]: 70 | % Antifeedent Activity [8]: 60% | Number of Psyllids Choosing each Treatment: Treated [9]: 30 | Number of Psyllids Choosing each Treatment: Untreated [9]: 70 | % Repellency [10]: 15%

CCCCCC1C(=O)CCC1CC(=O)OC (centres unmarked) [Methyl Dihydrojasmonate]
% Repellency [1]: 15% | Number of Aphids Choosing each Treatment: Treated [2]: 30 | Number of Aphids Choosing each Treatment: Untreated [2]: 70 | % Repellency [3]: 15% | % Antifeedent Activity [4]: 60% | % Antifeedent Activity [5]: 60% | Individuals choosing to feed on each disk: Treated [6]: 20 | Individuals choosing to feed on each disk: Untreated [6]: 80 | Number of Psyllids Choosing each Treatment: Treated [7]: 30 | Number of Psyllids Choosing each Treatment: Untreated [7]: 70 | Repellency averaged over 5 hours [11]: 90% | % Antifeedent Activity [8]: 90% | Number of Psyllids Choosing each Treatment: Treated [9]: 30 | Number of Psyllids Choosing each Treatment: Untreated [9]: 70 | % Repellency [10]: 15%

CCCCCCCC1CCCC(=O)O1 (centres unmarked) [Delta-dodecalactone]
% Repellency [1]: 40% | Number of Aphids Choosing each Treatment: Treated [2]: 20 | Number of Aphids Choosing each Treatment: Untreated [2]: 80 | % Repellency [3]: 40% | % Antifeedent Activity [4]: 70% | % Antifeedent Activity [5]: 70% | Individuals choosing to feed on each disk: Treated [6]: 10 | Individuals choosing to feed on each disk: Untreated [6]: 90 | Number of Psyllids Choosing each Treatment: Treated [7]: 20 | Number of Psyllids Choosing each Treatment: Untreated [7]: 80 | % Antifeedent Activity [8]: 80% | Number of Psyllids Choosing each Treatment: Treated [9]: 20 | Number of Psyllids Choosing each Treatment: Untreated [9]: 80 | % Repellency [10]: 40%
